Reference: US7381744B1, “Method of treating osteoporosis comprising vacuolar-type (H+)-ATPase-inhibiting compounds” (The United States of America as represented by the …, priority 1999, dated 2008)

How the values were obtained:
[1] = tested on: fungal vacuolar-type (H+)-ATPase (from Neurospora crassa); assay: fungal vacuolar-type (H+)-ATPase inhibition, side-by-side test; type: biochemical
Text: (§1) The inhibitory data were obtained using the same procedures and biological preparations described in Bowman et al., Proc. Natl. Acad. Sci. USA, 85, 7972-7976 (November 1988).

[2] = tested on: mammalian vacuolar-type (H+)-ATPase (from chromaffin granule membranes); assay: mammalian vacuolar-type (H+)-ATPase inhibition, side-by-side test; type: biochemical; settings: chromaffin granule membranes; side-by-side test
Text: as §1

`C/C=C/[C@H]1O[C@@](O)([C@@H](C)[C@H](O)[C@H](C)[C@H]2OC(=O)/C(OC)=C/C(C)=C/[C@@H](C)[C@@H](O)[C@@H](CC)[C@@H](O)[C@H](C)C/C(C)=C/C=C/[C@@H]2OC)C[C@@H](O[C@H]2C[C@@H](O)[C@H](OC(N)=O)[C@@H](C)O2)[C@@H]1C` [concanamycin A, reference compound] was tested, and the “inhibitory activity against fungal vacuolar-type (H+)-ATPase” value [1] was “potent inhibitor” and the “inhibitory activity against mammalian vacuolar-type (H+)-ATPase” value [2] was “potent inhibitor”.
